The values that follow come from US11034725B2, “Compositions and methods for treating cardiovascular disease” (Genentech, Inc., priority 2016, dated 2021).

The structures appear in SMILES notation. Bridge positions count the residues as written; N and C are the ends. Square brackets hold non-standard residues; d marks the D form. Peptide text beside a SMILES is read from it. Bounds are passed on as bounds.

The test system of test [1] is His-EGF(A)-Fc. The experiment in a line: His-EGF(A)-Fc TR-FRET counterscreen. As to conditions: TR-FRET counterscreen; Table 8D; * = some inhibition at highest concentrations, not sufficient to fit an IC50. (TR-FRET usually uses a lanthanide donor and a delayed reading to cut background.)
Test [2] deals with T1, PCSK9Δhelix (Homo sapiens, UniProt Q8NBP7).
T1 construct: Human PCSK9 construct M1-Q692 with an engineered TEV site (residue deletion Y166, R167); made in house; host or cells: CHO
The experiment in a line: PCSK9Δhelix/Ab20 TR-FRET binding assay. As to conditions: TR-FRET; Table 8D, disulfide-cyclized extension peptides; read-out: PCSK9Δhelix/Ab20 IC50.

The target in test [3] is PCSK9 (Homo sapiens, UniProt Q8NBP7). The experiment in a line: PCSK9/EGF(A) TR-FRET binding assay. As to conditions: TR-FRET; Table 8D, disulfide-cyclized extension peptides; read-out: PCSK9/EGF(A) IC50.
Sequence of PCSK9 (Q8NBP7 153-692): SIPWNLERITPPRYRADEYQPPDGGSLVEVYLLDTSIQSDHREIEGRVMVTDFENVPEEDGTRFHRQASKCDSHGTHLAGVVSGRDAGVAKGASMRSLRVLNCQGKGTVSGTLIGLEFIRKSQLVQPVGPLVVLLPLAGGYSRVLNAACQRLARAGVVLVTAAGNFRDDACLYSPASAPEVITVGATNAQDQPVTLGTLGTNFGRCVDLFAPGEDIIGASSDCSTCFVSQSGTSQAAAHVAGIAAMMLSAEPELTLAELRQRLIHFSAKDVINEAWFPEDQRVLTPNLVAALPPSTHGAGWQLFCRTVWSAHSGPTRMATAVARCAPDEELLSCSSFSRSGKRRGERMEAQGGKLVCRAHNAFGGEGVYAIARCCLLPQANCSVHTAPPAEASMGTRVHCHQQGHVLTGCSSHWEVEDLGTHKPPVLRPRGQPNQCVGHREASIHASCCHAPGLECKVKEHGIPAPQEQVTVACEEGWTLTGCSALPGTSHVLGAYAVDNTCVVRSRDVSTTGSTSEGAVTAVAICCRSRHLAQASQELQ
Sequence of PCSK9 (Q8NBP7 31-152 partner limits assumed): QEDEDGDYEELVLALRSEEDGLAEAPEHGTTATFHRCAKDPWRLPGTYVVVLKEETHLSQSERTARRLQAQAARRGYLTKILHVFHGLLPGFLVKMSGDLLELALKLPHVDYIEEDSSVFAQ

T1 sequence (Q8NBP7 with tags, fused parts or gaps limits assumed): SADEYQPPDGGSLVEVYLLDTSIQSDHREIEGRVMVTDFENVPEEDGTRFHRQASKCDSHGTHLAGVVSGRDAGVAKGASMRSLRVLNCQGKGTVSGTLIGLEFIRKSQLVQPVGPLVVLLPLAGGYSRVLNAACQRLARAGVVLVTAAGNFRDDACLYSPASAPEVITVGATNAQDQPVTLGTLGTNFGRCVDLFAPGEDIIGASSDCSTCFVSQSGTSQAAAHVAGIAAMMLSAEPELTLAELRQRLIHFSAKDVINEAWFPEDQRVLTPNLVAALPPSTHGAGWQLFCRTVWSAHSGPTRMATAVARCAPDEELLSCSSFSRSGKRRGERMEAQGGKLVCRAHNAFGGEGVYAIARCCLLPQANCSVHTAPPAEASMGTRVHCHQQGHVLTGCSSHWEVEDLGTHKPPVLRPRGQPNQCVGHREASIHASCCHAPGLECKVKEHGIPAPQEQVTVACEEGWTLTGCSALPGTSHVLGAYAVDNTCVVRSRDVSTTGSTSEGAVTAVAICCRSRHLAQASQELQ
T1 sequence (Q8NBP7 31-152 partner limits assumed): as the sequence (Q8NBP7 31-152 partner limits assumed) above

As to `CC[C@H](C)[C@@H]1NC(=O)[C@H](CCCNC(=N)N)NC(=O)[C@H](CCCCN)NC(=O)[C@H](CC(C)C)NC(=O)[C@H](CC(N)=O)NC(=O)[C@H](Cc2c[nH]c3ccccc23)NC(=O)[C@H](CC(C)C)NC(=O)[C@@H](NC(=O)[C@H](Cc2ccccc2)NC(C)=O)CSSC[C@@H](C(=O)N[C@@H](CCC(=O)O)C(=O)N[C@@H](Cc2ccc(O)cc2)C(N)=O)NC(=O)[C@H](CCC(N)=O)NC(=O)[C@H](CO)NC(=O)CNC1=O` [Compound 95] (Ac-FCLWNLKRIGSQCEY-NH2; disulfide 2-13), the figures for the IC50 in test [1], in test [2] and in test [3] were more than 50 µM, 12.7 µM and more than 50 µM, respectively.

As to `CC[C@H](C)[C@@H]1NC(=O)[C@H](CCCNC(=N)N)NC(=O)[C@H](CCC(N)=O)NC(=O)[C@H](CC(C)C)NC(=O)[C@H](CC(N)=O)NC(=O)[C@H](Cc2c[nH]c3ccccc23)NC(=O)[C@@H]2CCCN2C(=O)[C@H](CC(C)C)NC(=O)[C@H](CCCNC(=N)N)NC(=O)[C@@H](NC(C)=O)CSSC[C@@H](C(N)=O)NC(=O)[C@H]2CCCN2C(=O)[C@H](CC(C)C)NC(=O)CNC1=O` [Compound 99] (Ac-CRLPWNLQRIGL[dP]C-NH2; disulfide 1-14), the IC50 in test [1] is more than 50 µM; in test [2] it was 1.3 µM; in test [3], more than 50 µM.

Turning to `CC[C@H](C)[C@@H]1NC(=O)[C@H](CCCNC(=N)N)NC(=O)[C@H](CCC(N)=O)NC(=O)[C@H](CC(C)C)NC(=O)[C@H](CC(N)=O)NC(=O)[C@H](Cc2c[nH]c3ccccc23)NC(=O)[C@@H]2CCCN2C(=O)[C@H](CC(C)C)NC(=O)[C@H](CCCNC(=N)N)NC(=O)[C@@H](NC(C)=O)CSSC[C@@H](C(N)=O)NC(=O)[C@@H]2CCCN2C(=O)[C@@H](CC(C)C)NC(=O)CNC1=O` [Compound 100] (Ac-CRLPWNLQRIG[dL]PC-NH2; disulfide 1-14), the IC50 in test [1], in test [2] and in test [3] was more than 50 µM in each case.

For `CC[C@@H](C)[C@H]1NC(=O)[C@H](CCCNC(=N)N)NC(=O)[C@H](CCC(N)=O)NC(=O)[C@H](CC(C)C)NC(=O)[C@H](CC(N)=O)NC(=O)[C@H](Cc2c[nH]c3ccccc23)NC(=O)[C@@H]2CCCN2C(=O)[C@H](CC(C)C)NC(=O)[C@H](CCCNC(=N)N)NC(=O)[C@@H](NC(C)=O)CSSC[C@@H](C(N)=O)NC(=O)[C@@H]2CCCN2C(=O)[C@H](CC(C)C)NC(=O)CNC1=O` [Compound 101] (Ac-CRLPWNLQR[dI]GLPC-NH2; disulfide 1-14), the IC50 in test [1], in test [2] and in test [3] was more than 50 µM throughout.

For the molecule `CC[C@H](C)[C@@H]1NC(=O)[C@@H](CCCNC(=N)N)NC(=O)[C@H](CCC(N)=O)NC(=O)[C@H](CC(C)C)NC(=O)[C@H](CC(N)=O)NC(=O)[C@H](Cc2c[nH]c3ccccc23)NC(=O)[C@@H]2CCCN2C(=O)[C@H](CC(C)C)NC(=O)[C@H](CCCNC(=N)N)NC(=O)[C@@H](NC(C)=O)CSSC[C@@H](C(N)=O)NC(=O)[C@@H]2CCCN2C(=O)[C@H](CC(C)C)NC(=O)CNC1=O` [Compound 102] (Ac-CRLPWNLQ[dR]IGLPC-NH2; disulfide 1-14), the IC50 in test [1], in test [2] and in test [3] was more than 50 µM in each case.

Take `CC[C@H](C)[C@@H]1NC(=O)[C@H](CCCNC(=N)N)NC(=O)[C@@H](CCC(N)=O)NC(=O)[C@H](CC(C)C)NC(=O)[C@H](CC(N)=O)NC(=O)[C@H](Cc2c[nH]c3ccccc23)NC(=O)[C@@H]2CCCN2C(=O)[C@H](CC(C)C)NC(=O)[C@H](CCCNC(=N)N)NC(=O)[C@@H](NC(C)=O)CSSC[C@@H](C(N)=O)NC(=O)[C@@H]2CCCN2C(=O)[C@H](CC(C)C)NC(=O)CNC1=O` [Compound 103, Ac-CRLPWNLqRIGLPC-NH2] (Ac-CRLPWNL[dQ]RIGLPC-NH2; disulfide 1-14): the IC50 in test [1], in test [2] and in test [3] was more than 50 µM each time.

Regarding `CC[C@H](C)[C@@H]1NC(=O)[C@H](CCCNC(=N)N)NC(=O)[C@H](CCC(N)=O)NC(=O)[C@@H](CC(C)C)NC(=O)[C@H](CC(N)=O)NC(=O)[C@H](Cc2c[nH]c3ccccc23)NC(=O)[C@@H]2CCCN2C(=O)[C@H](CC(C)C)NC(=O)[C@H](CCCNC(=N)N)NC(=O)[C@@H](NC(C)=O)CSSC[C@@H](C(N)=O)NC(=O)[C@@H]2CCCN2C(=O)[C@H](CC(C)C)NC(=O)CNC1=O` [Compound 104, Ac-CRLPWNlQRIGLPC-NH2] (Ac-CRLPWN[dL]QRIGLPC-NH2; disulfide 1-14), the IC50 in test [1], in test [2] and in test [3] was more than 50 µM throughout.

Turning to `CC[C@H](C)[C@@H]1NC(=O)[C@H](CCCNC(=N)N)NC(=O)[C@H](CCC(N)=O)NC(=O)[C@H](CC(C)C)NC(=O)[C@@H](CC(N)=O)NC(=O)[C@H](Cc2c[nH]c3ccccc23)NC(=O)[C@@H]2CCCN2C(=O)[C@H](CC(C)C)NC(=O)[C@H](CCCNC(=N)N)NC(=O)[C@@H](NC(C)=O)CSSC[C@@H](C(N)=O)NC(=O)[C@@H]2CCCN2C(=O)[C@H](CC(C)C)NC(=O)CNC1=O` [Compound 105] (Ac-CRLPW[dN]LQRIGLPC-NH2; disulfide 1-14), the IC50 in test [1], in test [2] and in test [3] was more than 50 µM in each case.

With `CC[C@H](C)[C@@H]1NC(=O)[C@H](CCCNC(=N)N)NC(=O)[C@H](CCC(N)=O)NC(=O)[C@H](CC(C)C)NC(=O)[C@H](CC(N)=O)NC(=O)[C@@H](Cc2c[nH]c3ccccc23)NC(=O)[C@@H]2CCCN2C(=O)[C@H](CC(C)C)NC(=O)[C@H](CCCNC(=N)N)NC(=O)[C@@H](NC(C)=O)CSSC[C@@H](C(N)=O)NC(=O)[C@@H]2CCCN2C(=O)[C@H](CC(C)C)NC(=O)CNC1=O` [Compound 106] (Ac-CRLP[dW]NLQRIGLPC-NH2; disulfide 1-14), the IC50 in test [1], in test [2] and in test [3] was more than 50 µM each time.

Take `CC[C@H](C)[C@@H]1NC(=O)[C@H](CCCNC(=N)N)NC(=O)[C@H](CCC(N)=O)NC(=O)[C@H](CC(C)C)NC(=O)[C@H](CC(N)=O)NC(=O)[C@H](Cc2c[nH]c3ccccc23)NC(=O)[C@H]2CCCN2C(=O)[C@H](CC(C)C)NC(=O)[C@H](CCCNC(=N)N)NC(=O)[C@@H](NC(C)=O)CSSC[C@@H](C(N)=O)NC(=O)[C@@H]2CCCN2C(=O)[C@H](CC(C)C)NC(=O)CNC1=O` [Compound 107] (Ac-CRL[dP]WNLQRIGLPC-NH2; disulfide 1-14): the IC50 in test [1], in test [2] and in test [3] was more than 50 µM throughout.

With `CC[C@H](C)[C@@H]1NC(=O)[C@H](CCCNC(=N)N)NC(=O)[C@H](CCC(N)=O)NC(=O)[C@H](CC(C)C)NC(=O)[C@H](CC(N)=O)NC(=O)[C@H](Cc2c[nH]c3ccccc23)NC(=O)[C@@H]2CCCN2C(=O)[C@@H](CC(C)C)NC(=O)[C@H](CCCNC(=N)N)NC(=O)[C@@H](NC(C)=O)CSSC[C@@H](C(N)=O)NC(=O)[C@@H]2CCCN2C(=O)[C@H](CC(C)C)NC(=O)CNC1=O` [Compound 108] (Ac-CR[dL]PWNLQRIGLPC-NH2; disulfide 1-14), the values for the IC50 in test [1], in test [2] and in test [3] were more than 50 µM, 28.2 µM and more than 50 µM, respectively.
